Where “and” joins values, the source holds several entries; their conditions need not be identical. Equal values may be shown once.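 In this assay, cells in 96-well plates receive the compound at five concentrations for 48 hours. Endpoints are linearly interpolated between the surrounding concentrations. GI50 is the concentration that inhibits growth by half. TGI is the concentration that stops growth completely.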
How the values were obtained:
Experiment in all cases: NCI anticancer screen, dose series, 48 h
[1] = system: SK-MEL-5 melanoma
[2] = system: TK-10 renal
[3] = system: SF-295 CNS
[4] = system: UACC-62 melanoma
[5] = system: UACC-257 melanoma
[6] = system: ACHN renal
[7] = system: OVCAR-8 ovarian
[8] = system: SK-MEL-28 melanoma
[9] = system: SR leukemia
[10] = system: HS 578T breast

Row | SMILES | TGI [1] [µM] | TGI [2] | TGI [3] [µM] | TGI [4] | TGI [5] | TGI [6] [µM] | TGI [7] [µM] | TGI [8] | TGI [9] [µM] | GI50 [1] [µM] | GI50 [2] [µM] | GI50 [4] [µM] | GI50 [5] [µM] | GI50 [6] [µM] | GI50 [10] | TGI [10] | GI50 [7] | GI50 [8] | GI50 [3]
1 | O=C(CC(=O)C1=CNc2ccccc2S1)C(=O)Nc1ccc(Cl)cc1 | > 50 | > 50 µM | > 50 | > 50 µM | > 50 µM | > 50 | > 50 | > 50 µM |  |  |  |  |  |  |  |  |  |  | 
2 | CC(C)CCCC(C)[C@H]1CCC2[C@@H]3CCC4Nc5nocc5C[C@]4(C)C3CC[C@@]21C (stereo partly drawn) | 29.2 | 21.1 µM | 34 | 40.7 µM | 39.5 µM | 28.6 | 35.9 |  |  |  |  |  |  |  |  |  |  |  | 
3 | O=C(O/C(=C(/N=Nc1ccccc1)c1ccccc1)c1ccccc1)c1ccccc1 | > 100 | > 100 µM | > 100 | > 100 µM | > 100 µM | > 100 | > 100 | > 100 µM | > 100 |  |  |  |  |  |  |  |  |  | 
4 | CCOC1=C2C(=O)OC(=O)C2C2CCCCC2=C1 (stereo not drawn) | > 100 | > 100 µM | > 100 | > 100 µM | > 100 µM |  | > 100 | > 100 µM |  |  |  |  |  |  |  |  |  |  | 
5 | Cc1cc2c(C)nn(Cc3ccccc3)c2c(C(N)=O)c1C | > 100 | > 100 µM | > 100 | > 100 µM | > 100 µM | > 100 | > 100 | > 100 µM |  |  |  |  |  |  |  |  |  |  | 
6 | Cc1cc(Cl)ccc1Nc1nc(C(F)(F)F)ccc1C(=O)N/N=C/c1ccc(Cl)cc1 | 3.02 | 7.01 µM |  | 5.33 µM | 16.3 µM | 8.71 | > 100 | 12.7 µM |  | 1.52 | 1.66 | 2.14 | 3.67 | 2.48 | 2.53 µM | 9.62 µM | 3.16 µM | 2.18 µM | 
7 | C#CC1(O)C(COP(=O)(O)OC(COCCCCCCCCCCCCCCCCCC)COP(=O)(O)OCC2OC(n3cc(F)c(=O)[nH]c3=O)CC2O)OC(n2ccc(N)nc2=O)C1O (stereo not drawn) |  | 9.09 µM and 3.83 µM |  | 11.8 µM and 7.46 µM | 97.5 µM and 55.8 µM | > 100 | > 60.9 | 21.8 µM and 28.8 µM |  |  |  |  |  |  | 2.12 µM and 1.03 µM | 44.8 µM and 17.2 µM | 0.0922 µM and 0.28 µM | 0.618 µM and 1.49 µM | < 0.021 µM and 0.0441 µM
8 | O=[N+]([O-])c1ccc2c(c1)Cc1cc(N=Cc3ccc4c(c3)OCO4)ccc1-2 | > 100 | > 100 µM | > 100 | > 100 µM | > 100 µM | > 100 | > 100 | > 100 µM |  |  |  |  |  |  |  | > 100 µM |  |  | 
9 | O=C1Nc2nc3ccccc3n2N=C2CCCC12 (stereo not drawn) | > 100 | > 100 µM | > 100 | > 100 µM | > 100 µM | > 100 | > 100 | > 100 µM |  |  |  |  |  |  |  |  |  |  | 
10 | O=c1oc(Cl)c(Cl)c2ccccc12 | 37 | > 100 µM | > 100 | > 100 µM | > 100 µM | 39.7 | > 100 | > 100 µM |  | 16.5 | 82.5 | 32.9 | 93.8 | 16.1 | 35.1 µM | 96.2 µM | 47.8 µM | 46.5 µM | 39.4 µM
11 | CC(=O)C(=Cc1ccc(C=C(C(C)=O)C(C)=O)cc1)C(C)=O | 3.36 | 5.31 µM | 7.97 | 4.02 µM | 4.48 µM | 3.59 | 14.6 | 4.48 µM |  |  |  |  |  |  |  | 22.6 µM |  |  | 
12 | COc1ccc(-c2nc(/C=N/Nc3cc(C)nc4ccc(Cl)cc34)c(C)o2)cc1 | 3.17 | 3.3 µM | 3.31 | 3.37 µM | 3.35 µM | 3.2 | 3.91 | 3.24 µM |  | 1.77 | 1.83 | 1.8 | 1.7 | 1.81 | 1.84 µM | 3.79 µM | 1.89 µM | 1.8 µM | 1.82 µM
13 | C[C@]12CCC(=O)C=C1CC[C@@H]1C2CC[C@]2(C)Nc3c(cnn3-c3ccccc3)CC12 (stereo partly drawn) | > 100 | > 100 µM | > 10 | > 100 µM | > 100 µM | > 100 | > 100 | > 100 µM |  |  |  |  |  |  |  |  |  |  | 
14 | COC1OC(CBr)C(OC(=O)c2ccccc2)C(O)C1Br (stereo not drawn) | > 100 | > 100 µM | > 100 | > 100 µM | > 10 µM |  | > 100 | > 100 µM | > 100 |  |  |  |  |  |  |  |  |  | 
15 | O=C1C2C3C=C4c5ccccc5N(c5ccccc5)C4(C2C(=O)N1c1ccc(Cl)cc1)[C@H]1C(=O)N(c2ccc(Cl)cc2)C(=O)[C@@H]31 (stereo partly drawn) | > 100 | > 100 µM | > 100 | > 100 µM | > 100 µM |  | > 100 |  | > 100 |  |  |  |  |  |  |  |  |  | 
16 | C1COCCN1.C1COCCN1.NC1CCCCC1N.[Cl-].[Pt+2] (stereo not drawn) | > 100 | > 100 µM | > 100 | > 100 µM | > 100 µM | > 100 | > 100 | > 100 µM |  | > 100 | > 100 | > 100 | > 100 | > 100 |  |  | > 100 µM | > 100 µM | > 100 µM
17 | Cc1ccc(SSc2ccc(C)cc2C(=O)O)c(C(=O)O)c1 | > 100 | > 100 µM | > 100 | > 100 µM | > 100 µM | > 100 | > 100 | > 100 µM | > 100 |  |  |  |  |  |  |  |  |  | 
18 | CCn1cc(C(=O)N/N=C/c2ccccc2)c(=O)c2cc(F)c(N3CCNC(C)C3)c(F)c21 (stereo not drawn) | 3.14 | 3.24 µM | 3.35 |  |  | 3.12 |  | 3.19 µM |  | 1.76 | 1.71 |  |  | 1.73 |  |  |  | 1.78 µM | 1.83 µM
19 | Cc1cc(NCCCCCCNc2cc(C)nc3cc(N(C)C)ccc23)c2ccc(N(C)C)cc2n1 | > 100 | > 100 µM | > 100 | 21.4 µM | > 100 µM | > 100 | > 100 | > 100 µM | > 100 |  |  |  |  |  |  |  |  |  | 
20 | c1ccc(C(c2ccccc2)c2cccnc2)cc1 | > 100 | > 100 µM | > 100 | > 100 µM | > 100 µM | > 100 | > 100 | > 100 µM |  |  |  |  |  |  |  |  |  |  | 
